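At the GI50, growth is halved. TGI is the concentration that stops growth completely.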
What was measured:
Assay in all cases: DTP human tumour cell line panel, 384-well format
NCI/ADR-RES ovarian = tested on: NCI/ADR-RES ovarian
NCI-H522 lung = tested on: NCI-H522 lung
T-47D breast = tested on: T-47D breast
HCC-2998 colon = tested on: HCC-2998 colon
MDA-MB-468 breast = tested on: MDA-MB-468 breast
RPMI-8226 leukemia = tested on: RPMI-8226 leukemia
CAKI-1 renal = tested on: CAKI-1 renal
786-0 renal = tested on: 786-0 renal
K-562 leukemia = tested on: K-562 leukemia
OVCAR-3 ovarian = tested on: OVCAR-3 ovarian
A498 renal = tested on: A498 renal
U251 glioblastoma = tested on: U251 glioblastoma
HCT-116 colon = tested on: HCT-116 colon
OVCAR-4 ovarian = tested on: OVCAR-4 ovarian
SW-620 colon = tested on: SW-620 colon
MOLT-4 leukemia = tested on: MOLT-4 leukemia
SK-MEL-28 melanoma = tested on: SK-MEL-28 melanoma
HT29 colon = tested on: HT29 colon
SF-539 CNS = tested on: SF-539 CNS
IGROV1 ovarian = tested on: IGROV1 ovarian
SK-MEL-5 melanoma = tested on: SK-MEL-5 melanoma
M14 melanoma = tested on: M14 melanoma
SK-OV-3 ovarian = tested on: SK-OV-3 ovarian
MCF7 breast = tested on: MCF7 breast
SF-295 CNS = tested on: SF-295 CNS
NCI-H460 NSCLC = tested on: NCI-H460 NSCLC
OVCAR-8 ovarian = tested on: OVCAR-8 ovarian
UACC-257 melanoma = tested on: UACC-257 melanoma
KM12 colon = tested on: KM12 colon
ACHN renal = tested on: ACHN renal
UO-31 renal = tested on: UO-31 renal
HOP-92 NSCLC = tested on: HOP-92 NSCLC
SNB-19 CNS = tested on: SNB-19 CNS
SK-MEL-2 melanoma = tested on: SK-MEL-2 melanoma
PC-3 prostate = tested on: PC-3 prostate
MDA-MB-435 melanoma = tested on: MDA-MB-435 melanoma
LOX IMVI melanoma = tested on: LOX IMVI melanoma
OVCAR-5 ovarian = tested on: OVCAR-5 ovarian
SF-268 CNS = tested on: SF-268 CNS
BT-549 breast = tested on: BT-549 breast
HL-60(TB) leukemia = tested on: HL-60(TB) leukemia
A549 NSCLC = tested on: A549 NSCLC
HOP-62 NSCLC = tested on: HOP-62 NSCLC
SR leukemia = tested on: SR leukemia
NCI-H226 lung = tested on: NCI-H226 lung
TK-10 renal = tested on: TK-10 renal
SN12C renal = tested on: SN12C renal
UACC-62 melanoma = tested on: UACC-62 melanoma
DU-145 prostate = tested on: DU-145 prostate
MALME-3M melanoma = tested on: MALME-3M melanoma
CCRF-CEM leukemia = tested on: CCRF-CEM leukemia
MDA-MB-231 breast = tested on: MDA-MB-231 breast
HCT-15 colon = tested on: HCT-15 colon
COLO 205 colon = tested on: COLO 205 colon
RXF 393 renal = tested on: RXF 393 renal
NCI-H23 lung = tested on: NCI-H23 lung
NCI-H322M lung = tested on: NCI-H322M lung

Cc1c(-c2ccc(N3CCc4cccc(C(=O)Nc5nc6ccccc6s5)c4C3)nc2C(=O)O)cnn1CC12CC3CC(CC(C3)C1)C2
GI50 (NCI/ADR-RES ovarian): 13.5 µM | TGI (NCI/ADR-RES ovarian): 26.4 µM | GI50 (NCI-H522 lung): 3.66 µM | TGI (NCI-H522 lung): 17.6 µM | GI50 (T-47D breast): 10.6 µM | TGI (T-47D breast): 22.4 µM | GI50 (HCC-2998 colon): < 0.01 µM | TGI (HCC-2998 colon): 0.0661 µM | GI50 (MDA-MB-468 breast): 1.7 µM | TGI (MDA-MB-468 breast): 7.04 µM | GI50 (RPMI-8226 leukemia): < 0.01 µM | TGI (RPMI-8226 leukemia): < 0.01 µM | GI50 (CAKI-1 renal): 13.8 µM | TGI (CAKI-1 renal): 26.8 µM | GI50 ([…]-0 renal): 3.65 µM | TGI (786-0 renal): 15.5 µM | GI50 (K-562 leukemia): 10.8 µM | TGI (K-562 leukemia): 22.8 µM | GI50 (OVCAR-3 ovarian): 4.03 µM | TGI (OVCAR-3 ovarian): 18.1 µM | GI50 (A498 renal): 0.0911 µM | TGI (A498 renal): 2.39 µM | GI50 (U251 glioblastoma): 11.6 µM | TGI (U251 glioblastoma): 23.9 µM | GI50 (HCT-116 colon): 3.88 µM | TGI (HCT-116 colon): 16.9 µM | GI50 (OVCAR-4 ovarian): 0.0115 µM | TGI (OVCAR-4 ovarian): 13.2 µM | GI50 (SW-620 colon): 12.4 µM | TGI (SW-620 colon): 24.8 µM | GI50 (MOLT-4 leukemia): < 0.01 µM | TGI (MOLT-4 leukemia): < 0.01 µM | GI50 (SK-MEL-28 melanoma): 4.35 µM | TGI (SK-MEL-28 melanoma): 16.3 µM | GI50 (HT29 colon): 12.9 µM | TGI (HT29 colon): 25.6 µM | GI50 (SF-539 CNS): 14.6 µM | TGI (SF-539 CNS): 27.8 µM | GI50 (IGROV1 ovarian): 1.67 µM | TGI (IGROV1 ovarian): 4 µM | GI50 (SK-MEL-5 melanoma): 12.8 µM | TGI (SK-MEL-5 melanoma): 25.4 µM | GI50 (M14 melanoma): 16 µM | TGI (M14 melanoma): 29.5 µM | GI50 (SK-OV-3 ovarian): 6.03 µM | TGI (SK-OV-3 ovarian): 18.7 µM | GI50 (MCF7 breast): 14.2 µM | TGI (MCF7 breast): 27.2 µM | GI50 (SF-295 CNS): 3.63 µM | TGI (SF-295 CNS): 15.2 µM | GI50 (NCI-H460 NSCLC): 17.1 µM | TGI (NCI-H460 NSCLC): 30.8 µM | GI50 (OVCAR-8 ovarian): 11.8 µM | TGI (OVCAR-8 ovarian): 24.1 µM | GI50 (UACC-257 melanoma): 9.83 µM | TGI (UACC-257 melanoma): 21.5 µM | GI50 (KM12 colon): 11.2 µM | TGI (KM12 colon): 23.2 µM | GI50 (ACHN renal): 11.6 µM | TGI (ACHN renal): 23.8 µM | GI50 (UO-31 renal): 1.14 µM | TGI (UO-31 renal): 12 µM | GI50 (HOP-92 NSCLC): < 0.01 µM | TGI (HOP-92 NSCLC): 0.0174 µM | GI50 (SNB-19 CNS): 10 µM | TGI (SNB-19 CNS): 21.6 µM | GI50 (SK-MEL-2 melanoma): < 0.01 µM | TGI (SK-MEL-2 melanoma): 2.67 µM | GI50 (PC-3 prostate): 4.89 µM | TGI (PC-3 prostate): 17.4 µM | GI50 (MDA-MB-435 melanoma): 2.47 µM | TGI (MDA-MB-435 melanoma): 14 µM | GI50 (LOX IMVI melanoma): 6.46 µM | TGI (LOX IMVI melanoma): 18.6 µM | GI50 (OVCAR-5 ovarian): 0.351 µM | TGI (OVCAR-5 ovarian): 12.5 µM | GI50 (SF-268 CNS): 15.2 µM | TGI (SF-268 CNS): 28.5 µM | GI50 (BT-549 breast): 9.65 µM | TGI (BT-549 breast): 21.4 µM | GI50 (HL-60(TB) leukemia): 2.53 µM | TGI (HL-60(TB) leukemia): 5.94 µM | GI50 (A549 NSCLC): 8.57 µM | TGI (A549 NSCLC): 21 µM | GI50 (HOP-62 NSCLC): 15.3 µM | TGI (HOP-62 NSCLC): 28.7 µM | GI50 (SR leukemia): 0.0191 µM | TGI (SR leukemia): 2.47 µM | GI50 (NCI-H226 lung): 1 µM | TGI (NCI-H226 lung): 11.5 µM | GI50 (TK-10 renal): 2.48 µM | TGI (TK-10 renal): 16 µM | GI50 (SN12C renal): 13.5 µM | TGI (SN12C renal): 26.4 µM | GI50 (UACC-62 melanoma): 13.6 µM | TGI (UACC-62 melanoma): 26.4 µM | GI50 (DU-145 prostate): 16.7 µM | TGI (DU-145 prostate): 30.4 µM | GI50 (MALME-3M melanoma): 11.6 µM | TGI (MALME-3M melanoma): 23.8 µM | GI50 (CCRF-CEM leukemia): < 0.01 µM | TGI (CCRF-CEM leukemia): 0.0112 µM | GI50 (MDA-MB-231 breast): < 0.01 µM | TGI (MDA-MB-231 breast): 0.186 µM | GI50 (HCT-15 colon): 4.28 µM | TGI (HCT-15 colon): 16.6 µM | GI50 (COLO 205 colon): 0.272 µM | TGI (COLO 205 colon): 1.73 µM | GI50 (RXF 393 renal): < 0.01 µM | TGI (RXF 393 renal): 0.0108 µM | GI50 (NCI-H23 lung): 8.42 µM | TGI (NCI-H23 lung): 20.9 µM | GI50 (NCI-H322M lung): 7.97 µM | TGI (NCI-H322M lung): 21 µM
